# Values quoted from earlier work in patent publication US8889867B2, “Solid forms and process for preparing” (Corcept Therapeutics, Inc., priority 2009, dated 2014).
# Legend:
# [1] = target: glucocorticoid receptor (GR) (Homo sapiens, UniProt P04150); settings: Bertagna (1984)
# [2] = system: patients with Cushing's syndrome
# Chain of glucocorticoid receptor (GR) (P04150 whole entry): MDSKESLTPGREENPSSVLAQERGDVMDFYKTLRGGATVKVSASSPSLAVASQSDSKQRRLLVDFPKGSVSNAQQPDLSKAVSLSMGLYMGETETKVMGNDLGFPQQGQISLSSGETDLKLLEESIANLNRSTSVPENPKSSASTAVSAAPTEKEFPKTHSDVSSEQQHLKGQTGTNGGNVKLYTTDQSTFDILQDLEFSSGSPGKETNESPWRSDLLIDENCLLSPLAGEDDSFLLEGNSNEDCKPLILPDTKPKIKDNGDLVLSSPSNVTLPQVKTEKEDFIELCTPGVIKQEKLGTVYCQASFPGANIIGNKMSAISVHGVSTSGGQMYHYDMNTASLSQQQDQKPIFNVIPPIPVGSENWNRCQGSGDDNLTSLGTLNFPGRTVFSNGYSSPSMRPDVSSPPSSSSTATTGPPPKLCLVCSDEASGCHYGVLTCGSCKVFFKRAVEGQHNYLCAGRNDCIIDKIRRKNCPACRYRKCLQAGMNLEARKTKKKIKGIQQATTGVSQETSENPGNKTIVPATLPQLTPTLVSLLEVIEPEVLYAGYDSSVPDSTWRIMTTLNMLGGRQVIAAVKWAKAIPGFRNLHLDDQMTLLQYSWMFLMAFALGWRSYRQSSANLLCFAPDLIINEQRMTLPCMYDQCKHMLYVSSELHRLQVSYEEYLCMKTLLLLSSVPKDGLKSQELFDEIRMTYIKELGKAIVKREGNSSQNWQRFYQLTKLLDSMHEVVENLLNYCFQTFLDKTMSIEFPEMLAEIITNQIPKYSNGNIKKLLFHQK
structure (smiles),measurement,setting,value
CC#C[C@]1(O)CC[C@H]2[C@@H]3CCC4=CC(=O)CCC4=C3[C@@H](c3ccc(N(C)C)cc3)C[C@@]21C [mifepristone],anti-glucocorticoid effect in humans,[1],effective anti-glucocorticoid agent
same,reversal of acute psychosis,"[2]; 400 to 800 mg per day, severe Cushing Syndrome due to adrenal cancers and ectopic ACTH secretion from lung cancer, Van der Lely (1991, 1993)",useful in rapidly reversing acute psychosis
same,"patients' conditions, including psychiatric status","[2]; Cushing's syndrome patients, Chrousos (1989), Sartor (1996)",improved the patients' conditions
